Assay results taken from ChEMBL document CHEMBL4507274 (2021).

Columns and labels:
[1] = target: Mitogen-activated protein kinase kinase kinase 7 (Homo sapiens) (UniProt O43318); settings: Compound concentration 100.0 nM
[2] = target: Myosin light chain kinase family member 4 (Homo sapiens) (UniProt Q86YV6); settings: Compound concentration 100.0 nM
[3] = target: Dual specificity tyrosine-phosphorylation-regulated kinase 1A (Homo sapiens) (UniProt Q13627); settings: Compound concentration 100.0 nM
[4] = target: Ribosomal protein S6 kinase alpha-5 (Homo sapiens) (UniProt O75582); settings: Compound concentration 100.0 nM
[5] = target: RAC-alpha serine/threonine-protein kinase (Homo sapiens) (UniProt P31749); settings: Compound concentration 100.0 nM
[6] = target: Serine/threonine-protein kinase ULK2 (Homo sapiens) (UniProt Q8IYT8); settings: Compound concentration 100.0 nM
[7] = tested on: Tyrosine-protein kinase ABL1 (Homo sapiens), P00519 [F317I]; settings: Compound concentration 100.0 nM
[8] = target: 5-hydroxytryptamine receptor 3A (Homo sapiens) (UniProt P46098); settings: Compound concentration 10.0 uM
[9] = target: Phosphatidylinositol 3-kinase catalytic subunit type 3 (Homo sapiens) (UniProt Q8NEB9); settings: Compound concentration 100.0 nM
[10] = target: Serine/threonine-protein kinase ULK1 (Homo sapiens) (UniProt O75385); settings: Compound concentration 100.0 nM
[11] = target: Serine/threonine-protein kinase Nek3 (Homo sapiens) (UniProt P51956); settings: Compound concentration 100.0 nM
[12] = tested on: Receptor-type tyrosine-protein kinase FLT3 (Homo sapiens), P36888 [UNDEFINED MUTATION]; settings: Compound concentration 100.0 nM
[13] = target: Protein kinase C delta type (Homo sapiens) (UniProt Q05655); settings: Compound concentration 100.0 nM
[14] = target: Mitogen-activated protein kinase kinase kinase 4 (Homo sapiens) (UniProt Q9Y6R4); settings: Compound concentration 100.0 nM
[15] = target: Uncharacterized serine/threonine-protein kinase SBK3 (Homo sapiens) (UniProt P0C264); settings: Compound concentration 100.0 nM
[16] = target: Serine/threonine-protein kinase 24 (Homo sapiens) (UniProt Q9Y6E0); settings: Compound concentration 100.0 nM
[17] = target: Beta-1 adrenergic receptor (Homo sapiens) (UniProt P08588); settings: Compound concentration 10.0 uM
[18] = target: TGF-beta receptor type-1 (Homo sapiens) (UniProt P36897); settings: Compound concentration 100.0 nM
[19] = tested on: eIF-2-alpha kinase GCN2 (Homo sapiens), Q9P2K8 [S808G]; settings: Compound concentration 100.0 nM
[20] = target: Serine/threonine-protein kinase Nek5 (Homo sapiens) (UniProt Q6P3R8); settings: Compound concentration 100.0 nM
[21] = target: Homeodomain-interacting protein kinase 4 (Homo sapiens) (UniProt Q8NE63); settings: Compound concentration 100.0 nM
[22] = target: Serine/threonine-protein kinase PknB (Mycobacterium tuberculosis) (UniProt P9WI81); settings: Compound concentration 100.0 nM
[23] = target: Cyclin-dependent kinase 15 (Homo sapiens) (UniProt Q96Q40); settings: Compound concentration 100.0 nM
[24] = target: Wee1-like protein kinase 2 (Homo sapiens) (UniProt P0C1S8); settings: Compound concentration 100.0 nM
[25] = target: Serine/threonine-protein kinase PLK3 (Homo sapiens) (UniProt Q9H4B4); settings: Compound concentration 100.0 nM
[26] = target: Calcium/calmodulin-dependent protein kinase type II subunit alpha (Homo sapiens) (UniProt Q9UQM7); settings: Compound concentration 100.0 nM
[27] = target: Rho-associated protein kinase 1 (Homo sapiens) (UniProt Q13464); settings: Compound concentration 100.0 nM
[28] = target: Activated CDC42 kinase 1 (Homo sapiens) (UniProt Q07912); settings: Compound concentration 100.0 nM
[29] = target: Ribosomal protein S6 kinase alpha-3 (Homo sapiens) (UniProt P51812); settings: Compound concentration 100.0 nM
[30] = target: Ephrin type-A receptor 1 (Homo sapiens) (UniProt P21709); settings: Compound concentration 100.0 nM
[31] = target: Ephrin type-B receptor 3 (Homo sapiens) (UniProt P54753); settings: Compound concentration 100.0 nM
[32] = target: Serine/threonine-protein kinase B-raf (Homo sapiens) (UniProt P15056); settings: Compound concentration 100.0 nM
[33] = target: Rhodopsin kinase GRK1 (Homo sapiens) (UniProt Q15835); settings: Compound concentration 100.0 nM
[34] = tested on: Phosphatidylinositol 4,5-bisphosphate 3-kinase catalytic subunit alpha isoform (Homo sapiens), P42336 [H1047Y]; settings: Compound concentration 100.0 nM
[35] = target: Serine/threonine-protein kinase N1 (Homo sapiens) (UniProt Q16512); settings: Compound concentration 100.0 nM
[36] = target: Ribosomal protein S6 kinase alpha-2 (Homo sapiens) (UniProt Q15349); settings: Compound concentration 100.0 nM
[37] = target: Serine/threonine-protein kinase LATS2 (Homo sapiens) (UniProt Q9NRM7); settings: Compound concentration 100.0 nM
[38] = target: Phosphorylase b kinase regulatory subunit alpha, liver isoform (Homo sapiens) (UniProt P46019); settings: Compound concentration 100.0 nM
[39] = target: Histamine H1 receptor (Homo sapiens) (UniProt P35367); settings: Compound concentration 10.0 uM
[40] = target: Mitotic checkpoint serine/threonine-protein kinase BUB1 (Homo sapiens) (UniProt O43683); settings: Compound concentration 100.0 nM
[41] = target: Ribosomal protein S6 kinase alpha-1 (Homo sapiens) (UniProt Q15418); settings: Compound concentration 100.0 nM
[42] = target: Tyrosine-protein kinase Lck (Homo sapiens) (UniProt P06239); settings: Compound concentration 100.0 nM
[43] = tested on: Receptor-type tyrosine-protein kinase FLT3 (Homo sapiens), P36888 [D835V]; settings: Compound concentration 100.0 nM
[44] = tested on: Receptor-type tyrosine-protein kinase FLT3 (Homo sapiens), P36888 [UNDEFINED MUTATION]; settings: Compound concentration 100.0 nM; remark: listed apart in the source

Sequence of Protein kinase C delta type (Homo sapiens) (Q05655 whole entry, looked up): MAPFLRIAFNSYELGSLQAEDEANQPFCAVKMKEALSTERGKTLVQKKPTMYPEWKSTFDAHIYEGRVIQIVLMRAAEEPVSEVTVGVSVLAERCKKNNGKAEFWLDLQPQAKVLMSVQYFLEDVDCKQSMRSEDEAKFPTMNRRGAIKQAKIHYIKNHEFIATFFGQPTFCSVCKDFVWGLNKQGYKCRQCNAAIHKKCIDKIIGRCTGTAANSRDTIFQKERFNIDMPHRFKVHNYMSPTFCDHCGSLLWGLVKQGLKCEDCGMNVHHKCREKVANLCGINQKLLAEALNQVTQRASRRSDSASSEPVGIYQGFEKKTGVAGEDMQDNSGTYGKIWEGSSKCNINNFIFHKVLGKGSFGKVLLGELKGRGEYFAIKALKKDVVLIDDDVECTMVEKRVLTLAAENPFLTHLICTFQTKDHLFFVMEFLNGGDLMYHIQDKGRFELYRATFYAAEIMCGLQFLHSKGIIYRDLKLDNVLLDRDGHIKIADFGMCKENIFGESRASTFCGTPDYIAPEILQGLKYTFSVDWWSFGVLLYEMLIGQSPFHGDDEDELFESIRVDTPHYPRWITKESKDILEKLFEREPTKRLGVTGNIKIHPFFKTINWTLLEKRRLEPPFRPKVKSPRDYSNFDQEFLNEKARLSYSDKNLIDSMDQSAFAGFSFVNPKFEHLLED
Sequence of Beta-1 adrenergic receptor (Homo sapiens) (P08588 whole entry, looked up): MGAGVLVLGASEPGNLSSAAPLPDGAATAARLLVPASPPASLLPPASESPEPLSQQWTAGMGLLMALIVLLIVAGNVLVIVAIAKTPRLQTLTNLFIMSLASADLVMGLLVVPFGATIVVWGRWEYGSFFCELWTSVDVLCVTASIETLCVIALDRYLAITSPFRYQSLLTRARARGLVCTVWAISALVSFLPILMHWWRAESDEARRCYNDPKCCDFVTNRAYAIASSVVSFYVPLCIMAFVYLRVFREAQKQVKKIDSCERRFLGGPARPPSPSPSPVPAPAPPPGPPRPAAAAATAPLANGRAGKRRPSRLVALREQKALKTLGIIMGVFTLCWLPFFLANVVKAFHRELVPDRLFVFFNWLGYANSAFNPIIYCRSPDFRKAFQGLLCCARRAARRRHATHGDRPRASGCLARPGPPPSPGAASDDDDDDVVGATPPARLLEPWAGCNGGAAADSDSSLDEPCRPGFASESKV
Sequence of Serine/threonine-protein kinase PknB (Mycobacterium tuberculosis) (P9WI81 whole entry): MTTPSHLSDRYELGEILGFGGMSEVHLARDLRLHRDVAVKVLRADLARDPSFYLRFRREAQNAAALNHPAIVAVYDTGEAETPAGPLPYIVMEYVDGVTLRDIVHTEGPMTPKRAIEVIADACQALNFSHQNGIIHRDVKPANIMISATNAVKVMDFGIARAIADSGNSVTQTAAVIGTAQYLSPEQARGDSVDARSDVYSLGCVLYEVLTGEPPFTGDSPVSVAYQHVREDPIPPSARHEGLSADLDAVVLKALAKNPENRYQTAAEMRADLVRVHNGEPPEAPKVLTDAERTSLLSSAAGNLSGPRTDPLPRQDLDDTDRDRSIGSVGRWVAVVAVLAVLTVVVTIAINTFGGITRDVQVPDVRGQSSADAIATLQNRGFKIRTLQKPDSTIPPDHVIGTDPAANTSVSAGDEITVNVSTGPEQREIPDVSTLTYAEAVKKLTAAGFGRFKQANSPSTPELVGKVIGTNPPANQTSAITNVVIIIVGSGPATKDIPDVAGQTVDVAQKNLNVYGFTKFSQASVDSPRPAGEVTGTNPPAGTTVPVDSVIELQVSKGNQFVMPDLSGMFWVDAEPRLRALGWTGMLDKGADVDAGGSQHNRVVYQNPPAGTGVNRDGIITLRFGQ
Sequence of Phosphatidylinositol 3-kinase catalytic subunit type 3 (Homo sapiens) (Q8NEB9 whole entry): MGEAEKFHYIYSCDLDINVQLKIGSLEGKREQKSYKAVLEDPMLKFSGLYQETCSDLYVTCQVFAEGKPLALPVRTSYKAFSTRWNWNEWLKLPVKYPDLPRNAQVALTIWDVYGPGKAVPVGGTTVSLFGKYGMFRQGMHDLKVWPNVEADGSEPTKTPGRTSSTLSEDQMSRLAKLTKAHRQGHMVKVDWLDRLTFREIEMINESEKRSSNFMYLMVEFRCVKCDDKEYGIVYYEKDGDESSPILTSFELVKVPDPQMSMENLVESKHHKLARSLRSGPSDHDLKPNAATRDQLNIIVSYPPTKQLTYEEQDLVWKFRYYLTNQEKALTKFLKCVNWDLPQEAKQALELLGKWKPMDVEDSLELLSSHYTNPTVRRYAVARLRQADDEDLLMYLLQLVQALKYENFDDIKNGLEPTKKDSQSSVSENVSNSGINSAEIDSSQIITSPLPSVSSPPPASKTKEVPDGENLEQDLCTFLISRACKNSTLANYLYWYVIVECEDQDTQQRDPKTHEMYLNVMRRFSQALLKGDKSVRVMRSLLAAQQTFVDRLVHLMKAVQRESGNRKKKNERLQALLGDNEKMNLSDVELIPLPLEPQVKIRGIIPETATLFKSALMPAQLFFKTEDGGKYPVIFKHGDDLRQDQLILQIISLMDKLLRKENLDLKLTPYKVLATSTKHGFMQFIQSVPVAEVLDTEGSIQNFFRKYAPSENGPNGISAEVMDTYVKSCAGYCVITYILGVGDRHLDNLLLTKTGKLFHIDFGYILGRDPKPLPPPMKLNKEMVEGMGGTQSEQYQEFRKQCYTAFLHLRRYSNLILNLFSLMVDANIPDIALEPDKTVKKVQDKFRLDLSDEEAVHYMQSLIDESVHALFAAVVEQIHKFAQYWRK
Sequence of Ribosomal protein S6 kinase alpha-3 (Homo sapiens) (P51812 whole entry): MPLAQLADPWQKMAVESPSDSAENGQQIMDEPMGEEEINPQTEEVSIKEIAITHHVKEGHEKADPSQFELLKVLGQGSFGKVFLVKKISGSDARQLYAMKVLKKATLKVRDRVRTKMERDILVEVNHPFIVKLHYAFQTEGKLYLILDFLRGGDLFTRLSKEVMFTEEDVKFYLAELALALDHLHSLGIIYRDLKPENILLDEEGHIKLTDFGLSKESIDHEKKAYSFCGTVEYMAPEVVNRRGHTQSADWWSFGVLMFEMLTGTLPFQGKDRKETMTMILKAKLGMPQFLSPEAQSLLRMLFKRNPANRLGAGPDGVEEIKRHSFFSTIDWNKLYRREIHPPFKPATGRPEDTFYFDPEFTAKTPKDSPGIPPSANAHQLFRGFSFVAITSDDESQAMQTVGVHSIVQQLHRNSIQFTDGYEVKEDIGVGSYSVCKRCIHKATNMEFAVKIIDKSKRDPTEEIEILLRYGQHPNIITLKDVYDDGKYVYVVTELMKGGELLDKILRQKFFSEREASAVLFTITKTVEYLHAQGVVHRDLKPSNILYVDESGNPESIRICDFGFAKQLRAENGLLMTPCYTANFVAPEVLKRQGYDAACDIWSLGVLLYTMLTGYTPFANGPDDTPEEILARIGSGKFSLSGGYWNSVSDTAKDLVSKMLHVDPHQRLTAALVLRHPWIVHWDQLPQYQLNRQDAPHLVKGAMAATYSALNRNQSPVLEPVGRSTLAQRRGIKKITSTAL
Sequence of RAC-alpha serine/threonine-protein kinase (Homo sapiens) (P31749 whole entry): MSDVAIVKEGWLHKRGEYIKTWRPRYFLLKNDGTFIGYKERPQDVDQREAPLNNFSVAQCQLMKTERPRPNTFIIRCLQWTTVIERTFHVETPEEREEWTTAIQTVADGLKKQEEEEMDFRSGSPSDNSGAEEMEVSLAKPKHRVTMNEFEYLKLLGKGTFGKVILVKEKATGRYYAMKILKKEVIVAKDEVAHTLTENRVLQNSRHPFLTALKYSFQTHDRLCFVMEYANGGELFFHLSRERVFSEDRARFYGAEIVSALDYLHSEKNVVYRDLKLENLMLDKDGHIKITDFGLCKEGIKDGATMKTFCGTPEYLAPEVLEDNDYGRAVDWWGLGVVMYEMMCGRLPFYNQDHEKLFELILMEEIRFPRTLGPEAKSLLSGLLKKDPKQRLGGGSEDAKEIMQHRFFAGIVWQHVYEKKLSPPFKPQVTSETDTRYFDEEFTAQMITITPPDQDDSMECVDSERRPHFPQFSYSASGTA
Sequence of TGF-beta receptor type-1 (Homo sapiens) (P36897 whole entry): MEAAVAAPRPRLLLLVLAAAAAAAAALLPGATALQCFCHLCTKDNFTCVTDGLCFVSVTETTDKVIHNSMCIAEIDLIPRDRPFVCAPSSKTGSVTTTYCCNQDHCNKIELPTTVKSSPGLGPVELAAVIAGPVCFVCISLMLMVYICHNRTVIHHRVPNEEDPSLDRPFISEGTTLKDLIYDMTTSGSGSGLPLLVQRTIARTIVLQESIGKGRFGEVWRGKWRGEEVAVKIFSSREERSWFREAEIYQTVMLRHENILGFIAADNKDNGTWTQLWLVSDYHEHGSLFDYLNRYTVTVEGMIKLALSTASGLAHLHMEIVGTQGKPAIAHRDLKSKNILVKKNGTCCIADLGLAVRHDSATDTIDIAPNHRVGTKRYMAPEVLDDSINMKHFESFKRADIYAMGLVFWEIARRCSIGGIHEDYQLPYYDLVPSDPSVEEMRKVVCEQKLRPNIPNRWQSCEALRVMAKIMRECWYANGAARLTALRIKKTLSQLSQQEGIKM
Sequence of Mitogen-activated protein kinase kinase kinase 7 (Homo sapiens) (O43318 whole entry): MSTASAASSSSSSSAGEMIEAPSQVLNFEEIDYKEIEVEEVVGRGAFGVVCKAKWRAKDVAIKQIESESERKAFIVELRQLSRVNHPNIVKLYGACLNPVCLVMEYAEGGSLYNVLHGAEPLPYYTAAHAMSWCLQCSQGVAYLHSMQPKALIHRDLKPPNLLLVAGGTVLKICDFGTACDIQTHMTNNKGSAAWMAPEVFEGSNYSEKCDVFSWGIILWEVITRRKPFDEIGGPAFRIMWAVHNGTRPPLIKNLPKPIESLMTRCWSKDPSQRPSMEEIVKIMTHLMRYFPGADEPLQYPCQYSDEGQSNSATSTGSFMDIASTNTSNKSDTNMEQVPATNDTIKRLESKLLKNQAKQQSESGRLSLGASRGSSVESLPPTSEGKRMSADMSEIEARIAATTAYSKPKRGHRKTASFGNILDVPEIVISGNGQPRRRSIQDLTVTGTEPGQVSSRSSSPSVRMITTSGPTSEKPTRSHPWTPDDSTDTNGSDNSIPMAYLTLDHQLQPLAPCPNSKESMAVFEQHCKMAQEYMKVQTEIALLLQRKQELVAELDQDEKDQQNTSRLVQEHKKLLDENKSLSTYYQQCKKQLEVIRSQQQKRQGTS

**Q.** For `Cc1c[nH]c2nccc(Oc3c(F)cc(Nc4cc(Cl)nc(N)n4)cc3F)c12` [BAY-549], which residual activity [1] is on record?
**A.** 92%

**Q.** And the residual activity [2]?
**A.** 100%

**Q.** And the residual activity [3]?
**A.** 88%

**Q.** And the residual activity [4]?
**A.** 100%

**Q.** And the residual activity [5]?
**A.** 100%

**Q.** And the residual activity [6]?
**A.** 89%

**Q.** What about the residual activity [7] of the same compound?
**A.** 100%

**Q.** What about the inhibition [8] of the same compound?
**A.** 0.5%

**Q.** What about the residual activity [9] of the same compound?
**A.** 67%

**Q.** And the residual activity [10]?
**A.** 92%

**Q.** What about the residual activity [11] of the same compound?
**A.** 75%

**Q.** What about the residual activity [12] of the same compound?
**A.** 97%

**Q.** And the residual activity [13]?
**A.** 100%

**Q.** What about the residual activity [14] of the same compound?
**A.** 100%

**Q.** What about the residual activity [15] of the same compound?
**A.** 87%

**Q.** And the residual activity [16]?
**A.** 100%

**Q.** And the inhibition [17]?
**A.** 6.86%

**Q.** What about the residual activity [18] of the same compound?
**A.** 81%

**Q.** And the residual activity [19]?
**A.** 100%

**Q.** What about the residual activity [20] of the same compound?
**A.** 97%

**Q.** And the residual activity [21]?
**A.** 100%

**Q.** What about the residual activity [22] of the same compound?
**A.** 98%

**Q.** And the residual activity [23]?
**A.** 76%

**Q.** What about the residual activity [24] of the same compound?
**A.** 91%

**Q.** What about the residual activity [25] of the same compound?
**A.** 83%

**Q.** And the residual activity [26]?
**A.** 70%

**Q.** And the residual activity [27]?
**A.** 0.6%

**Q.** What about the residual activity [28] of the same compound?
**A.** 95%

**Q.** And the residual activity [29]?
**A.** 73%

**Q.** What about the residual activity [30] of the same compound?
**A.** 100%

**Q.** What about the residual activity [31] of the same compound?
**A.** 100%

**Q.** And the residual activity [32]?
**A.** 98%

**Q.** And the residual activity [33]?
**A.** 82%

**Q.** And the residual activity [34]?
**A.** 83%

**Q.** What about the residual activity [35] of the same compound?
**A.** 72%

**Q.** And the residual activity [36]?
**A.** 100%

**Q.** And the residual activity [37]?
**A.** 0.7%

**Q.** And the residual activity [38]?
**A.** 89%

**Q.** And the inhibition [39]?
**A.** -0.06%

**Q.** What about the residual activity [40] of the same compound?
**A.** 75%

**Q.** And the residual activity [41]?
**A.** 100%

**Q.** And the residual activity [42]?
**A.** 100%

**Q.** What about the residual activity [43] of the same compound?
**A.** 90%

**Q.** And the residual activity [44]?
**A.** 87%

**Q.** How did the residual activity [1] turn out when `Cn1cc(Cl)c2c(Oc3c(F)cc(Nc4cc(Cl)nc(N)n4)cc3F)ccnc21` [BAY-4900] was run?
**A.** 100%

**Q.** What about the residual activity [2] of the same compound?
**A.** 91%

**Q.** What about the residual activity [3] of the same compound?
**A.** 98%

**Q.** And the residual activity [4]?
**A.** 100%

**Q.** What about the residual activity [5] of the same compound?
**A.** 75%

**Q.** And the residual activity [6]?
**A.** 100%

**Q.** And the residual activity [7]?
**A.** 93%

**Q.** What about the inhibition [8] of the same compound?
**A.** 4.46%

**Q.** And the residual activity [9]?
**A.** 75%

**Q.** What about the residual activity [10] of the same compound?
**A.** 93%

**Q.** What about the residual activity [11] of the same compound?
**A.** 91%

**Q.** And the residual activity [12]?
**A.** 100%

**Q.** And the residual activity [13]?
**A.** 100%

**Q.** And the residual activity [14]?
**A.** 100%

**Q.** And the residual activity [15]?
**A.** 65%

**Q.** What about the residual activity [16] of the same compound?
**A.** 100%

**Q.** What about the inhibition [17] of the same compound?
**A.** -2.51%

**Q.** What about the residual activity [18] of the same compound?
**A.** 93%

**Q.** What about the residual activity [19] of the same compound?
**A.** 100%

**Q.** And the residual activity [20]?
**A.** 100%

**Q.** And the residual activity [21]?
**A.** 100%

**Q.** What about the residual activity [22] of the same compound?
**A.** 100%

**Q.** And the residual activity [23]?
**A.** 94%

**Q.** And the residual activity [24]?
**A.** 93%

**Q.** What about the residual activity [25] of the same compound?
**A.** 98%

**Q.** And the residual activity [26]?
**A.** 82%

**Q.** What about the residual activity [27] of the same compound?
**A.** 76%

**Q.** And the residual activity [28]?
**A.** 85%

**Q.** What about the residual activity [29] of the same compound?
**A.** 79%

**Q.** What about the residual activity [30] of the same compound?
**A.** 100%

**Q.** And the residual activity [31]?
**A.** 100%

**Q.** And the residual activity [32]?
**A.** 100%

**Q.** What about the residual activity [33] of the same compound?
**A.** 92%

**Q.** What about the residual activity [34] of the same compound?
**A.** 62%

**Q.** And the residual activity [35]?
**A.** 100%

**Q.** And the residual activity [36]?
**A.** 100%

**Q.** And the residual activity [37]?
**A.** 91%

**Q.** And the residual activity [38]?
**A.** 100%

**Q.** And the inhibition [39]?
**A.** 3.19%

**Q.** What about the residual activity [40] of the same compound?
**A.** 82%

**Q.** And the residual activity [41]?
**A.** 100%

**Q.** And the residual activity [42]?
**A.** 100%

**Q.** What about the residual activity [43] of the same compound?
**A.** 91%

**Q.** What about the residual activity [44] of the same compound?
**A.** 79%
